Test results reported in paper PMC4912077 (PLoS ONE, 2016).
“Also recorded” adds a separate entry of the source. Where two headings read alike, the source gives them in different places.

How the values were obtained:
[1] = test system: Sprague–Dawley rats; test: Pre-pulse inhibition (PPI) of acoustic startle in rats; type: in vivo, rat; conditions: for ED50: sc, rat, subcutaneous, read-out: ED50 for reduction of average PPI
Procedure: (§1) Male Sprague–Dawley rats from Harlan Industries (Indianapolis, IN, USA; initial weight 250–275 g) were housed in pairs under a 12-h reverse light/dark cycle (lights off at 0700 h). Use of a reversed light/dark cycle allows behavioral testing to be conducted during the awake phase of the light/dark cycle. Food and water were available ad libitum. Animals were acclimatized for approximately 1 wk after arrival prior to behavioral testing and maintained in Association for Assessment and Accreditation of Laboratory Animal Care (AAALAC)-approved facilities that meet all federal and state guidelines. Procedures were approved by the University of California San Diego institutional animal care and use committee. Principles of laboratory animal care were followed.
DPH hydrochloride and 2-MXP hydrochloride were dissolved in water containing 5% Tween-80 and administered subcutaneously, 10-min prior to the start of the startle test session. The injection volume was 1 ml/kg.
Eight startle chambers (SR-LAB system, San Diego Instruments, San Diego, CA, USA) were used to measure startle reactivity in rats. The startle test chambers were sound-attenuated, lighted, and ventilated enclosures containing a clear nonrestrictive cylindrical Plexiglas stabilimeter, 8.2 cm in diameter. A high-frequency loudspeaker mounted 24 cm above the Plexiglas cylinder produced all acoustic stimuli. The peak and average amplitudes of the startle response were detected by a piezoelectric accelerometer. At the onset of the startling stimulus, 100 1-ms readings were recorded, and the average amplitude was used to determine the magnitude of the startle response (measured in arbitrary units).
Acoustic startle test sessions consisted of startle trials (pulse-alone) and prepulse trials (prepulse + pulse). The pulse-alone trial consisted of a 40-ms 120-dB pulse of broadband white noise. Prepulse + pulse trials consisted of a 20-ms acoustic prepulse, an 80-ms delay, and then a 40-ms 120-dB startle pulse (100-ms onset–onset). There was an average of 15 s (range = 6–22 s) between trials. During each inter-trial interval, the movements of the animals were recorded once to measure response when no stimulus was present (data not shown). Each startle session began with a 5 min acclimation period to a 65-dB broadband noise that was present continuously throughout the session. One week after arrival, animals were tested in a brief baseline startle/PPI session to create treatment groups matched for levels of startle and PPI. The startle test session contained 12 pulse-alone trials and 36 prepulse + pulse trials (12 prepulses each of 68-, 71-, and 77-dB [equivalent to 3-, 6-, and 12-dB above background]) presented in a pseudo-randomized order. Six pulse-alone trials were presented at the beginning and the end of the test session but were not used in the calculation of PPI values. Raw data for all PPI experiments are provided as supporting information (S5 File).
The amount of PPI was calculated as a percentage score for each prepulse + pulse trial type: %PPI = 100−{[(startle response for prepulse + pulse trial)/(startle response for pulse-alone trial)] × 100}. Startle magnitude was calculated as the average response to all of the pulse-alone trials. PPI data were analyzed with two-factor analysis of variance (ANOVA) with treatment as the between-subjects factor and trial type (prepulse intensity) as a repeated measure. For experiments in which there was no significant interaction between drug and prepulse intensity, PPI data were collapsed across prepulse intensity and average PPI was used as the main dependent measure. ED50 values were calculated using nonlinear regression. Startle magnitude data were analyzed with one-factor ANOVA. Post-hoc analyses were performed using Tukey’s studentized range method. The alpha level was set at 0.05.

[2] = target: T1, Human SERT (Homo sapiens, UniProt P31645); test: Monoamine reuptake inhibition assay, SERT in HEK293 cells; type: cell-based
T1 construct: expressed in transfected cells; host or cells: HEK293
T1 sequence (P31645 whole entry): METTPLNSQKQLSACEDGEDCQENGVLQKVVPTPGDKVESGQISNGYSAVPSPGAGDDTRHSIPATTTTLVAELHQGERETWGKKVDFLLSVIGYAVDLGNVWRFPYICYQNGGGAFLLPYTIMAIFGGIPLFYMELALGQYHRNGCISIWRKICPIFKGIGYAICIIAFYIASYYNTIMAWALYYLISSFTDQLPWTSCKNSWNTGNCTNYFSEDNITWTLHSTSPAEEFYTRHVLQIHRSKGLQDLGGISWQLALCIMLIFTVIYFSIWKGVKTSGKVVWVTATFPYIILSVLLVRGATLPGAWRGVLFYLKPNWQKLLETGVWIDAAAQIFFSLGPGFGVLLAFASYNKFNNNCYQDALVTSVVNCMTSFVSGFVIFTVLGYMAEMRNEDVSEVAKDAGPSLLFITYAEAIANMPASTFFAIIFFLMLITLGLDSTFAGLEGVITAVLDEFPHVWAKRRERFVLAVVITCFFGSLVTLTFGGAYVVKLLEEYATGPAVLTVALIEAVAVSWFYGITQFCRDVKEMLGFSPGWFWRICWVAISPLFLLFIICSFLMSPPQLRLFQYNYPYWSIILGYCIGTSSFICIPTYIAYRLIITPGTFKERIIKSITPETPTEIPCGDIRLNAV
Procedure: (§2) Monoamine reuptake inhibition assays were performed via the NIMH PDSP as previously described.[28] In brief, the neurotransmitter transporter uptake assay kit (R8174) (Molecular Devices) was used. Human monoamine transporters (DAT, NET and SERT) were stably expressed in HEK293 cells. Assay buffer consisted of 20 mM HEPES, 1x HBSS at pH 7.4. Cells were plated in Pol-L-Lys (PLL) coated 384-well black clear bottom cell culture plates with a density of 15,000 cells/well. Cells were incubated for at least 6 h prior to assay. Media was removed and replaced with 20 μL assay buffer and 5 μL of drug or positive control (cocaine or nisoxetine) as a 5X stock. Cells were incubated for 30 min at 37°C. 25 μL of dye solution was then added and following an additional 30 min incubation (at 37°C) fluorescence intensity was measured using a FlexStation II (bottom read mode, excitation wavelength = […], emission = 520 nM with a cutoff of 510 nM). […] Additional details are available in the NIMH PDSP assay protocol book.

[3] = target: M5 (Homo sapiens, UniProt P08912); test: NIMH PDSP radioligand binding, M5
Chain of M5 (P08912 whole entry): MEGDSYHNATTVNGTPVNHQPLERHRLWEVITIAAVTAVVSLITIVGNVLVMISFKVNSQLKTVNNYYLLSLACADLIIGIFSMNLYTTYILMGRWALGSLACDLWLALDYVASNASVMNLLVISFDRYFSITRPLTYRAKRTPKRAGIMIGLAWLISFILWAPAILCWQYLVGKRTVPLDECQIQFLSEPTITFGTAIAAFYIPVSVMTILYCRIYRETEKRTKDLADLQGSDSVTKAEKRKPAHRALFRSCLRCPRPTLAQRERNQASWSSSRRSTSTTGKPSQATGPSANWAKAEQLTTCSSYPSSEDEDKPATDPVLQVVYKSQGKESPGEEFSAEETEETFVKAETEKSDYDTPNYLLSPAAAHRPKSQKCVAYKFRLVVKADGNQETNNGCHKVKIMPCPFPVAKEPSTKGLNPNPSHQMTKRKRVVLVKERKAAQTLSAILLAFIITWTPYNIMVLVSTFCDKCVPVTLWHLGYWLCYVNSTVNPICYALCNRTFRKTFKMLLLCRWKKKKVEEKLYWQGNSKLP

[4] = target: T2, DAT (Homo sapiens, UniProt Q01959); test: NIMH PDSP radioligand binding, DAT
T2 sequence (Q01959 whole entry): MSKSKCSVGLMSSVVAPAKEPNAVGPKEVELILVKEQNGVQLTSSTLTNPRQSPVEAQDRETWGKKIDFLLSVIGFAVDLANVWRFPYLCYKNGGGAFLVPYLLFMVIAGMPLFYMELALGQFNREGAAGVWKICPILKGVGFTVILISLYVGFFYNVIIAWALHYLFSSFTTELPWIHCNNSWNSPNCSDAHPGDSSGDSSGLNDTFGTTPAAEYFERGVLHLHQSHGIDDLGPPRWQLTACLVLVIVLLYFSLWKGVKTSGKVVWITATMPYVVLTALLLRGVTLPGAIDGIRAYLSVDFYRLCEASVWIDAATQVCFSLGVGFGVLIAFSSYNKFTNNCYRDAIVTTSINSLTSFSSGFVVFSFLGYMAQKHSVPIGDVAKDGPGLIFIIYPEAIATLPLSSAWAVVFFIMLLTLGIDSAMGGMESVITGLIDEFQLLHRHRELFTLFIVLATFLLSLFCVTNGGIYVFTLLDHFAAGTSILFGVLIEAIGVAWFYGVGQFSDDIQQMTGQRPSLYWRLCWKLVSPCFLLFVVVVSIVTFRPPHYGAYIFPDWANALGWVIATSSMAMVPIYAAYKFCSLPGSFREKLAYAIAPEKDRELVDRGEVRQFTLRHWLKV
Procedure: (§3) Radioligands and concentrations used for additional 45 CNS receptor binding assays are listed as supporting information (S1 Table). This work was performed by the National Institute of Mental Health Psychoactive Drug Screening Program (NIMH PDSP) as described previously.[26] Briefly target compounds were dissolved in DMSO and subjected to a primary screen at 10,000 nM concentration. […] Additional experimental details are available in the NIMH PDSP assay protocol book.

[5] = target: NET (Homo sapiens, UniProt P23975); test: Monoamine reuptake inhibition assay, NET in HEK293 cells; type: cell-based; parameters: expressed in transfected cells; host or cells: HEK293; conditions: for Hill slope NET reuptake inhibition: HEK293 cells
Chain of NET (P23975 whole entry): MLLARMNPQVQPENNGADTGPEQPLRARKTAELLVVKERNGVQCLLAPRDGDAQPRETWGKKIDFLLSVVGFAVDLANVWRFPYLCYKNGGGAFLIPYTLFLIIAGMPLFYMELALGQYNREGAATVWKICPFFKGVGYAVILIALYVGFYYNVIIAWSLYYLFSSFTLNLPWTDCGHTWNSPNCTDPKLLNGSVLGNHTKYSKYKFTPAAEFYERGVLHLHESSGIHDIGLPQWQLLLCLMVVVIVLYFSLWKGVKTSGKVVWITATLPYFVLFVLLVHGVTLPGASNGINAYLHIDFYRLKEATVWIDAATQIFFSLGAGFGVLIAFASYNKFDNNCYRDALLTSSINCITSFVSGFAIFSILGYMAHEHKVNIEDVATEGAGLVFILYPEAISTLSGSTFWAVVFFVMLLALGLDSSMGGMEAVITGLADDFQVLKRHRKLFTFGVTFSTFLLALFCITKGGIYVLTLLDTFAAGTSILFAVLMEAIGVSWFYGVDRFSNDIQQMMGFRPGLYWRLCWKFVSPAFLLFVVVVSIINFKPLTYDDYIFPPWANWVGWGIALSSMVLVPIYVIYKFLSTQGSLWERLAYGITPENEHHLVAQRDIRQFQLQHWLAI
Procedure: as §2

[6] = target: H1 (Homo sapiens, UniProt P35367); test: NIMH PDSP radioligand binding, H1
Chain of H1 (P35367 whole entry): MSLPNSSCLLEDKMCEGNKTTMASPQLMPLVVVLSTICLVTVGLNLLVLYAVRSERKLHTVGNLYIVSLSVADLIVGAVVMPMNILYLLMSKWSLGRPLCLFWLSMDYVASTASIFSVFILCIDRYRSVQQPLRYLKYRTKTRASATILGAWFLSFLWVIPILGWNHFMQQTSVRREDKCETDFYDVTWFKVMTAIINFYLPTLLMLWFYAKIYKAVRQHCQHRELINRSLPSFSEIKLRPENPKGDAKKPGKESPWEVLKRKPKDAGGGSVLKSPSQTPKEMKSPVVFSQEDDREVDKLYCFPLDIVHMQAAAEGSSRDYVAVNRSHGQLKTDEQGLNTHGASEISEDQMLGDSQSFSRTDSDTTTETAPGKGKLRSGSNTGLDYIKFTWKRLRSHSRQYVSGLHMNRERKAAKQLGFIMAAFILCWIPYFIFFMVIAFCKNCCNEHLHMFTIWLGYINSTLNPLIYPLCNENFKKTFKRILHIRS
Procedure: as §3

[7] = test system: PCP site within the NMDAR channel;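 also: IC50 by nonlinear regression of percent specific binding versus log concentration, Ki from IC50 via Cheng-Prusoff, raw counts in CPM, duplicates repeated at least three times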
Procedure: (§4) The reaction was terminated by vacuum filtration using a 24 well cell harvester (Brandel, Gaithersburg, MD) over presoaked GF/B glass fiber filters (Brandel, Gaithersburg, MD). Filters were washed with room temperature assay buffer (3 x 5 mL). […] IC50 values were determined in Graphpad Prism 5.0 using non-linear regression with log-concentration plotted against percent specific binding. […] Ki values were calculated using the equation of Cheng and Prusoff [24]. […] Protein concentration was determined via the Bradford method using Coomassie protein assay reagent (Sigma, USA) [25] with rat albumin (Sigma, USA) as standard. Experiments were performed in duplicate and repeated a minimum of three times.

[8] = target: T2, DAT; test: Monoamine reuptake inhibition assay, DAT in HEK293 cells; type: cell-based; parameters: expressed in transfected cells; host or cells: HEK293; conditions: for Hill slope DAT reuptake inhibition: HEK293 cells
Procedure: as §2

[9] = target: KOR (Homo sapiens, UniProt P41145); test: NIMH PDSP radioligand binding, KOR
Chain of KOR (P41145 whole entry): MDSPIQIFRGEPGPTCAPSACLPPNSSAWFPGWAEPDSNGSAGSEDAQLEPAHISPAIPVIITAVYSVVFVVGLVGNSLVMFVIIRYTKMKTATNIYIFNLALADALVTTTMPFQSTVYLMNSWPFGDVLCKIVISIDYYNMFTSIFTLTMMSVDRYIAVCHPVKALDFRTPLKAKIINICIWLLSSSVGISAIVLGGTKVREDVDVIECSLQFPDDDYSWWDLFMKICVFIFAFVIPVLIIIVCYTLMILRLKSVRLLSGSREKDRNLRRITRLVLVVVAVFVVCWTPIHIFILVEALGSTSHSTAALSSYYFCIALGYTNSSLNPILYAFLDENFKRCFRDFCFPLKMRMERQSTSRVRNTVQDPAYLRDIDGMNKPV
Procedure: as §3

[10] = target: PCP site within the NMDAR channel; test: NMDAR binding, [3H]-MK-801 displacement in rat forebrain homogenate; conditions: for Ki: read-out: Ki ± SEM, [3H]-(+)-MK-801, rat forebrain, Cheng-Prusoff;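 as to all read-outs here: IC50 by nonlinear regression of percent specific binding versus log concentration, Ki from IC50 via Cheng-Prusoff, raw counts in CPM, duplicates repeated at least three times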
Procedure: as §4

[11] = test system: Sprague–Dawley rats; test: Acoustic startle response (ASR) magnitude in rats; type: in vivo, rat
Procedure: as §1, with “Principles of laboratory animal care were followed.” left out
Eight startle chambers (SR-LAB system, San Diego Instruments, San Diego, CA, USA) were used to measure startle reactivity in rats. […] The peak and average amplitudes of the startle response were detected by a piezoelectric accelerometer. At the onset of the startling stimulus, 100 1-ms readings were recorded, and the average amplitude was used to determine the magnitude of the startle response (measured in arbitrary units).
Acoustic startle test sessions consisted of startle trials (pulse-alone) and prepulse trials (prepulse + pulse). […] During each inter-trial interval, the movements of the animals were recorded once to measure response when no stimulus was present (data not shown). […]

Row | SMILES | effect on PPI ([1]; 20 mg/kg s.c.) | effect on PPI ([1]; doses up to 10 mg/kg s.c.) | IC50 [2] [nM] | Ki [3] [nM] | Ki [4] [nM] | IC50 [5] [nM] | Hill slope NET reuptake inhibition [5] | Ki [6] [nM] | IC50 [7] [nM] | IC50 [8] [nM] | Hill slope DAT reuptake inhibition [8] | Ki [9] [nM] | Ki [10] [nM] | acoustic startle response (ASR) magnitude ([11]; 20 mg/kg s.c., vehicle 175.9 ± 29.2) [arbitrary units] | effect on average PPI ([1]; 10 mg/kg s.c., first dose-response experiment) | effect on PPI ([1]; 10, 20 and 30 mg/kg s.c., second experiment) | ED50 ([1]; 10 min before test) [mg/kg] | ED50 ([1]; 95% CI in parentheses) [µmol/kg] | NMDAR affinity relative to ketamine ([10]; higher affinity) | effect on magnitude of the ASR ([11]; 1.25–30 mg/kg s.c., both experiments)
1 | COc1ccccc1C(Cc1ccccc1)N1CCCCC1 (stereo not shown) [2-MXP, 2-methoxydiphenidine] | did disrupt PPI; also recorded: significant inhibition of PPI | did not alter PPI | > 10000 | 1530 | 2910 | 35200 | 2.04 | 533 | 56.5 ± 5.8 | 30000 | 0.81 | 1690 | 36 ± 3.7 | 78.8 ± 11.9 | – | – | – | – | – | –
2 | c1ccc(CC(c2ccccc2)N2CCCCC2)cc1 (stereo not shown) [DPH, diphenidine] | – | – | > 10000 | 1650 | 317 | 9250 | 0.97 | 1340 | 28.6 ± 3.5 | 1990 | 0.91 | 3900 | 18.2 ± 2.2 | – | significantly reduced average PPI | reduced PPI at all three prepulse intensities | 9.5 | 31.5 | ~ 18 fold | did not alter the magnitude of the ASR
